Reference: paper PMC7725692 (Frontiers in Molecular Neuroscience, 2020)

Assays:
Ace-ACR-16 [1] = biological target: T1, Ace-ACR-16 (Ancylostoma ceylanicum, UniProt A0A7M1S071); experiment: cell-based; design: full-length homopentameric receptor, co-expressed with Hco-RIC-3 in Xenopus laevis oocytes; conditions: read-out: % maximal acetylcholine response
T1 sequence (A0A7M1S071 22-498): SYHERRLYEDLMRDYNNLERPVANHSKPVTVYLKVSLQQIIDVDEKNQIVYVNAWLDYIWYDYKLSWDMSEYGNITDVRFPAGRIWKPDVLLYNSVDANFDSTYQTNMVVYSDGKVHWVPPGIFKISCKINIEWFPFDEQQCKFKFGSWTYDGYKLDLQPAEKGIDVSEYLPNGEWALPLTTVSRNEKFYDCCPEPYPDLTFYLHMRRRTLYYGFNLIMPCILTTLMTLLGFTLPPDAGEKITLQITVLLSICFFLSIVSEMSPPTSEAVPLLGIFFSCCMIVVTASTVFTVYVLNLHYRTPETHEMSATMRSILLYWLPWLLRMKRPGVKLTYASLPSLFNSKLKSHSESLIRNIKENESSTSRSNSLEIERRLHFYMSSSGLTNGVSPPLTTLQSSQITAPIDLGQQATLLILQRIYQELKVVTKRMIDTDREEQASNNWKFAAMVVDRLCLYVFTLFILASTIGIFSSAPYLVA

Ace-ACR-16 [2] = biological target: T1, Ace-ACR-16; experiment: cell-based; conditions: read-out: % inhibition at 500 μM
Nam-ACR-16 [3] = biological target: T2, Nam-ACR-16 (Necator americanus, UniProt A0A7M1S0Z8); experiment: cell-based; conditions: read-out: % inhibition at 500 μM
T2 sequence (A0A7M1S0Z8 22-498): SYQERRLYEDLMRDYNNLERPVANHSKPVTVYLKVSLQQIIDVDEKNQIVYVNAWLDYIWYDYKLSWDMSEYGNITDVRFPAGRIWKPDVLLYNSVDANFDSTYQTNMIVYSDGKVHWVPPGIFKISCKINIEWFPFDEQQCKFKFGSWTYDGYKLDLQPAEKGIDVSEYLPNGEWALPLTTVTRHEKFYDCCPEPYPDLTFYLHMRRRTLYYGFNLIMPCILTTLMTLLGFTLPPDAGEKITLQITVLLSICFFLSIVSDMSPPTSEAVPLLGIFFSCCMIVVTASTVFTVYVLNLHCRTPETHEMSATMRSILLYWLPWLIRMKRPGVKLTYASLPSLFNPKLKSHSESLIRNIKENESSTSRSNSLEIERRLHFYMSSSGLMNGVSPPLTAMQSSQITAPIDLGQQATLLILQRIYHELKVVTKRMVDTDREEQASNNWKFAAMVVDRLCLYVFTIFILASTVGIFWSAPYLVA

Nam-ACR-16 [4] = biological target: T2, Nam-ACR-16; experiment: two-electrode voltage clamp in Xenopus oocytes, agonist concentration-response; type: cell-based; design: full-length homopentameric receptor, co-expressed with Hco-RIC-3 in Xenopus laevis oocytes
Ace-ACR-16 [5] = biological target: T1, Ace-ACR-16; experiment: two-electrode voltage clamp in Xenopus oocytes, agonist concentration-response (full agonist); type: cell-based; design: full-length homopentameric receptor, co-expressed with Hco-RIC-3 in Xenopus laevis oocytes
Nam-ACR-16 [6] = biological target: T2, Nam-ACR-16; experiment: two-electrode voltage clamp in Xenopus oocytes, agonist concentration-response (weak partial agonist); type: cell-based; design: full-length homopentameric receptor, co-expressed with Hco-RIC-3 in Xenopus laevis oocytes

SMILES: CN1CCCN=C1/C=C/c1cccc(O)c1 [oxantel]
- Emax (Ace-ACR-16 [1]): 15.6 ± 9.6%

SMILES: c1ccc([C@H]2CN3CCSC3=N2)cc1 [levamisole]
- inhibition at 500 µM (Ace-ACR-16 [2]): 65.1 ± 14.3%
- inhibition at 500 µM (Nam-ACR-16 [3]): 79.5 ± 7.7%

SMILES: CN1CCCN=C1/C=C/c1cccs1 [pyrantel]
- Emax (Ace-ACR-16 [1]): 12.5 ± 7.5%

SMILES: CC(=O)OCC[N+](C)(C)C [acetylcholine]
- EC50 (Nam-ACR-16 [4]): 170 ± 19.2 µM

SMILES: CN1CCC[C@H]1c1cccnc1 [nicotine]
- EC50 (Ace-ACR-16 [5]): 24.4 ± 2.89 µM
- EC50 (Nam-ACR-16 [6]): 598 ± 59.1 µM
